Data on seven molecules can be found in patent US12662460B2, “Compositions for use for the inhibition of dihydroorotate dehydrogenase” (OHIO STATE INNOVATION FOUNDATION, priority 2019, dated 2026).

In one assay the target is T1, recombinant human DHODH (Homo sapiens, UniProt Q02127).
T1 construct: made in house
The assay is described as follows: DHODH enzymatic assay (DCIP reduction). To be noted: recombinant human enzyme, 25° C.; read-out: h-DHODH IC50. Format: biochemical. The method, then:
DHODH Enzymatic Assay: DHODH activity was determined at 25° C. following the reduction of 2,6-dichloroindophenol sodium salt (DCIP) at 600 nm (ε=18 800 M^−1 cm^−1) on a spectrophotometer. The reaction medium used contained 50 mM Tris-HCl, pH 8.0, 0.1% Triton X-100, 0.1 mM LDHO, 0.025 mM CoQ1, and 0.06 mM DCIP. The reaction was started by addition of the enzyme. The inhibitory potency of the compounds was evaluated by measuring the initial velocity of the reaction either in the absence or in the presence of the compounds at the indicated concentrations. The DHODH enzyme used was the recombinant human enzyme prepared as previously described (Hëlène Munier-Lehmann, et al., J. Med. Chem. 2015, 58:860-877).

The next assay concerns OCI-AML3. The assay is described as follows: MTS assay for cell growth/viability, OCI-AML3. Format: cell-based. The conditions noted are these: Homo sapiens, OCI-AML-3, 96 hours. The method, then: (§1) MTS assay for cell growth/viability: Mitochondrial activity was measured to determine cell proliferation using an MTS assay ([…]). Metabolically active cells convert MTS tetrazolium salt into a purple formazan product that is soluble in tissue culture medium. The amount of formazan measured at 490 nm absorbance is proportional to the number of proliferating cells. MTS assays in AML cell lines were carried out with 20K cells plated per well in 96-well plates with Cpd3 or brequinar in a dose series ranging from 0.0001 to 10 μM. Triplicate wells were set up for each condition. At 96 hours, the MTS reagent was added and after approximately 4 hours the plates were read in a spectrophotometer.
(§2) Biological Activity. Cell proliferation assays were carried out using the MTS assay described herein using two AML cell lines (i.e., MOLM13 and OCI-AML3) with varied genetic backgrounds. The assays were carried out in a blinded fashion.
For orientation: Tetrazolium dyes change colour on reduction, which living cells bring about.

The next assay has as its system MOLM13. The experiment in a line: MTS assay for cell growth/viability, MOLM13. The conditions noted are these: Homo sapiens, MOLM-13, 96 hours. In kind it is cell-based. The protocol:
as §1, §2

T1 sequence (Q02127 whole entry): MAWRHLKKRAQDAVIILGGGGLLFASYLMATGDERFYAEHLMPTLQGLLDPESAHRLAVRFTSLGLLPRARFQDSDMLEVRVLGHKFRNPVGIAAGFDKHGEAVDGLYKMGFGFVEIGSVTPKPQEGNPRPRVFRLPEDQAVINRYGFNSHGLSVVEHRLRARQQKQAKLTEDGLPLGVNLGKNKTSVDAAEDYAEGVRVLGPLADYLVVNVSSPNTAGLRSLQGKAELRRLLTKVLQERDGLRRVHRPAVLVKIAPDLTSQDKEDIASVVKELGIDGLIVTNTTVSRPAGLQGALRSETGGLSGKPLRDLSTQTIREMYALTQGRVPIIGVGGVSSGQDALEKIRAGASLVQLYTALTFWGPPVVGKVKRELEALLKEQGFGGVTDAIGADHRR

The IC50 is the concentration that gives 50% inhibition. On to `CCOc1ccc(-c2ccc(-c3cc(C(=O)O)c4cc(F)ccc4n3)cn2)cc1` [Cpd1, 2-(6-(4-ethoxyphenyl)pyridin-3-yl)-6-fluoroquinoline-4-carboxylic acid], for which the IC50 was 628 nM at recombinant human DHODH, 4320 nM in the assay on OCI-AML3 and 5350 nM in the assay with MOLM13.
For the molecule `CCOc1ccc(-c2ccc(-c3cc(C(=O)O)c4cc(F)ccc4n3)nc2)cc1` [Cpd2, 2-(5-(4-ethoxyphenyl)pyridin-2-yl)-6-fluoroquinoline-4-carboxylic acid], the IC50 at recombinant human DHODH was found to be 317 nM; in the assay with OCI-AML3, 709 nM; in the assay with MOLM13, 571 nM.
In the assay on OCI-AML3, `CCOc1ccc(-c2cnc(-c3cc(C(=O)O)c4cc(F)ccc4n3)nc2)cc1` [Cpd3, 2-(5-(4-ethoxyphenyl)pyrimidin-2-yl)-6-fluoroquinoline-4-carboxylic acid] showed an IC50 of 3640 nM.
As for `CCOc1ccc(-c2cnc(-c3cc(C(=O)O)c4cc(F)ccc4n3)cn2)cc1` [Cpd4, 2-(5-(4-ethoxyphenyl)pyrazin-2-yl)-6-fluoroquinoline-4-carboxylic acid], the results for the IC50 on recombinant human DHODH and in the assay with OCI-AML3 were 500 nM and 2100 nM, respectively.
The matching figures for `CCOc1ccc(-c2ccc(-c3cc(C(=O)O)c4cc(F)ccc4n3)nn2)cc1` [Cpd5, 2-(6-(4-ethoxyphenyl)pyridazin-3-yl)-6-fluoroquinoline-4-carboxylic acid]: 4750 nM and greater than 10000 nM.
With `CCOc1cccc(-c2cnc(-c3cc(C(=O)O)c4cc(F)ccc4n3)nc2)c1` [Cpd6, 2-(5-(3-ethoxyphenyl)pyrimidin-2-yl)-6-fluoroquinoline-4-carboxylic acid], the IC50 at recombinant human DHODH is 1820 nM; with OCI-AML3, greater than 10000 nM.
The matching figures for `CCOc1cccc(-c2ccc(-c3cc(C(=O)O)c4cc(F)ccc4n3)nn2)c1` [Cpd7, 2-(6-(3-ethoxyphenyl)pyridazin-3-yl)-6-fluoroquinoline-4-carboxylic acid]: 605 nM and greater than 10000 nM.
